Measurements taken from patent US20260078099A1, “COMPOUND, PREPARATION METHOD THEREOF, AND LIPID NANOPARTICLE AND PHARMACEUTICAL COMPOSITION” (priority 2023, published 2026).

Tests used:
[1] = Dose-response study, Luc mRNA intramuscular; format: in vivo; conditions: mRNA doses 0.25, 0.05 and 0.01 mg/kg
Method: Samples containing firefly luciferase (Luc) mRNA were administered intramuscularly to evaluate protein expression. […] As the dose decreased, the injection site's expression proportion increased. A26, A47, and B38 maintained injection site flux levels of 0.3-3×10^10 (p/s) across all doses.

[2] = LNP size and PDI by dynamic light scattering; format: physicochemical; conditions: for PDI / Size (nm): mRNA LNP, cationic lipid/DSPC/cholesterol/PEG-lipid 50:10:38.5:1.5; for particle sizes by dynamic light scattering (FIG. 22): mRNA-loaded LNPs
[3] = LNP encapsulation efficiency (Quant-it Ribogreen); format: physicochemical; conditions: mRNA LNP, cationic lipid/DSPC/cholesterol/PEG-lipid 50:10:38.5:1.5
mice = experiment: Bioluminescent study, intramuscular injection of F-luc mRNA LNPs; format: in vivo; conditions: F-luc luminescence flux normalized to MC3; 0.25 mg/kg intramuscular, mice n=3, 6-hour time point
Procedure, shortened: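 Mice (n=3) received LNP-formulated F-luc mRNA at 0.25 mg/kg intramuscularly. Bioluminescence was read 6 h after dosing. Test LNPs were made with an MC3 formulation, and PBS served as control in some groups.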

LNP zeta potential = format: physicochemical; conditions: mRNA LNP

Row | SMILES | PDI [2] | Size (nm) [2] | Encapsulation efficiency (%) [3] | Zeta potential (mV) (LNP zeta potential) | dose-response of Luc expression [1] | particle sizes by dynamic light scattering (FIG. 22) [2] | Relative Total flux (mice)
1 | CCCCCCCC/C=C\CCCCCCCCNC(=O)C(CCCCCCCC)N(CCCCCCCC/C=C\CCCCCCCC)C(=O)CCCN(C)C (stereo not shown) [Compound C1] | 0.108 | 60.62 nm | 82.31% | −9.90 mV | – | – | B (B: ≥1 and <2)
2 | CCCCCCCCCCCNC(=O)C(CCCCCCCC)N(CCN(C)CCN(C(=O)CCCCCCCCCC(=O)OC(CCCCCC)CCCCCC)C(CCCCCCCC)C(=O)NCCCCCCCCCC)C(=O)CCCCCCCCCC(=O)OC(CCCCCC)CCCCCC (stereo not shown) [Compound D4] | 0.163 | 113.2 nm | 43.24% | −5.91 mV | – | – | C (C: ≥0.1 and <1)
3 | CCCCCCC(CCCCCC)OC(=O)CCCCCCCCCNC(=O)CN(CCN(C)CCN(CC(=O)NCCCCCCCCCC(=O)OC(CCCCCC)CCCCCC)C(=O)CCCCCCCCCC(=O)OC(CCCCCC)CCCCCC)C(=O)CCCCCCCCCC(=O)OC(CCCCCC)CCCCCC [Compound D5] | 0.183 | 78.42 nm | 96.72% | −17.80 mV | – | – | A (A: ≥2)
4 | CCCCCCC(CCCCCC)OC(=O)CCCCCCCCCNC(=O)C(CCCCCCCCCC(=O)OC(CCCCCC)CCCCCC)N(CCCN(CCO)CCO)C(=O)CCCN(C)CCO (stereo not shown) [Compound E2] | 0.143 | 78.64 nm | 91.65% | −9.45 mV | – | – | C (C: ≥0.1 and <1)
5 | CCCCCCC(CCCCCC)OC(=O)CCCCCCCCCNC(=O)C(CCCCCCCCCC(=O)OC(CCCCCC)CCCCCC)N(CCCN(CCO)CCO)C(=O)CCCN(C)C (stereo not shown) [Compound E3] | 0.166 | 93.07 nm | 89.28% | −2.06 mV | – | – | C (C: ≥0.1 and <1)
6 | CCCCCCC(CCCCCC)OC(=O)CCCCCCCCCNC(=O)C(CCCCCCCCCC(=O)OC(CCCCCC)CCCCCC)N(CCCN(CCO)CCO)C(=O)CCCN(CC)CC (stereo not shown) [Compound E4] | 0.205 | 95.73 nm | 95.18% | 5.03 mV | – | – | A (A: ≥2)
7 | CCCCCCC(CCCCCC)OC(=O)CCCCCCCCCNC(=O)C(CCCCCCCCCC(=O)OC(CCCCCC)CCCCCC)N(CCCN(CC)CC)C(=O)CCCN(CC)CC (stereo not shown) [Compound E7] | 0.13 | 95.52 nm | 92.11% | −16.13 mV | – | – | C (C: ≥0.1 and <1)
8 | CCCCC/C=C\C/C=C\CCCCCCCCC(CCCCCCCC/C=C\C/C=C\CCCCC)OC(=O)CCCN(C)C [DLin-MC3, reference compound] | 0.036 | 87.75 nm | 95.24% | −3.25 mV | – | – | B (B: ≥1 and <2)
9 | CCCCCCCCCCCOC(=O)CCCCCN(CCO)CCCCCCCC(=O)OC(CCCCCCCC)CCCCCCCC [SM-102, reference compound] | 0.058 | 89.08 nm | 96.25% | −1.23 mV | – | approximately 100 nm | A (A: ≥2)

Further lines, with some results ahead:

Row | PDI [2] | Size (nm) [2] | Encapsulation efficiency (%) [3] | Zeta potential (mV) (LNP zeta potential) | SMILES | dose-response of Luc expression [1] | particle sizes by dynamic light scattering (FIG. 22) [2] | Relative Total flux (mice)
10 | 0.11 | 94.21 nm | 94.09% | 2.30 mV | CCCCCCCCNC(=O)C(CCCCCCCC)N(CCCN(C)C)C(=O)CCCCCCC(=O)OC(CCCCCCCC)CCCCCCCC (stereo not shown) [Compound A26] | clear dose-response gradient | approximately 100 nm | A (A: ≥2)
11 | 0.22 | 105.63 nm | 92.99% | −1.65 mV | CCCCCCCCNC(=O)C(CCCCCCCC)N(CCCN(CCO)CCO)C(=O)CCCCCCC(=O)OC(CCCCCCCC)CCCCCCCC (stereo not shown) [Compound B26] | – | – | D (D: <0.1.)
12 | 0.10 | 62.10 nm | 93.73% | 1.69 mV | CCCCCCCCNC(=O)C(CCCCCCCC)N(CCN(CC)CCO)C(=O)CCCCCCC(=O)OC(CCCCCCCC)CCCCCCCC (stereo not shown) [Compound B29] | – | – | A (A: ≥2)
13 | 0.08 | 64.27 nm | 93.97% | 3.81 mV | CCCCCCCCNC(=O)C(CCCCCCCC)N(CCCN(C)CCO)C(=O)CCCCCCC(=O)OC(CCCCCCCC)CCCCCCCC (stereo not shown) [Compound B30] | – | – | A (A: ≥2)
14 | 0.10 | 61.00 nm | 95.03% | 4.83 mV | CCCCCCCCNC(=O)C(CCCCCCCC)N(CCN(C)CCO)C(=O)CCCCCCC(=O)OC(CCCCCCCC)CCCCCCCC (stereo not shown) [Compound B31] | – | – | A (A: ≥2)
15 | 0.32 | 119.93 nm | 93.95% | 7.87 mV | CCCCCCCCNC(=O)C(CCCCCCCC)N(CCN(CCO)CCO)C(=O)CCCCCCC(=O)OC(CCCCCCCC)CCCCCCCC (stereo not shown) [Compound B32] | – | – | A (A: ≥2)
16 | 0.198 | 64.58 nm | 91.26% | −14.75 mV | CCCCC/C=C\C/C=C\CCCCCCCCNC(=O)C(CCCCCCCC)N(CCCCCCCC/C=C\C/C=C\CCCCC)C(=O)CCCN1CCN(C)CC1 (stereo not shown) [Compound C5] | – | – | D (D: <0.1.)
17 | 0.24 | 78.44 nm | 82.17% | −0.77 mV | CCCCCC/C=C\CCCCCCCC(C(=O)NCCCCCCCC/C=C\CCCCCCCC)N(CCCN(C)C)C(=O)CCCCCCC/C=C\CCCCCCCC (stereo not shown) [Compound C8] | – | – | A (A: ≥2)
18 | 0.183 | 84.36 nm | 93.90% | −19.40 mV | CCCCCCC(CCCCCC)OC(=O)CCCCCCCCCNC(=O)C(CCCCCCCCCC(=O)OC(CCCCCC)CCCCCC)N(CCCN(C)CCO)C(=O)CCCN(C)CCO (stereo not shown) [Compound E5] | – | – | B (B: ≥1 and <2)
19 | 0.246 | 81.59 nm | 96.54% | −6.48 mV | CCCCCCC(CCCCCC)OC(=O)CCCCCCCCCNC(=O)C(CCCCCCCCCC(=O)OC(CCCCCC)CCCCCC)N(CCCN(C)C)C(=O)CCCN(C)C (stereo not shown) [Compound E6] | – | – | C (C: ≥0.1 and <1)
20 | 0.182 | 92.75 nm | 96.30% | −18.58 mV | CCCCCCC(CCCCCC)OC(=O)CCCCCCCCCNC(=O)C(CCCCCCCCCC(=O)OC(CCCCCC)CCCCCC)N(CCCN1CCCC1)C(=O)CCCN1CCCC1 (stereo not shown) [Compound E8] | – | – | B (B: ≥1 and <2)
21 | 0.593 | 91.81 nm | 82.13% | −15.91 mV | CCCCCCC(CCCCCC)OC(=O)CCCCCCCCCNC(=O)C(CCCCCCCCCC(=O)OC(CCCCCC)CCCCCC)N(CCCN1CCN(C)CC1)C(=O)CCCN1CCN(C)CC1 (stereo not shown) [Compound E9] | – | – | C (C: ≥0.1 and <1)
22 | 0.185 | 104.5 nm | 69.71% | −16.71 mV | CCCCCCC(CCCCCC)OC(=O)CCCCCCCCCNC(=O)C(CCCCCCCCCC(=O)OC(CCCCCC)CCCCCC)N(CCN1CCN(CCO)CC1)C(=O)CCN1CCN(CCO)CC1 (stereo not shown) [Compound E10] | – | – | C (C: ≥0.1 and <1)
23 | 0.158 | 85.75 nm | 93.77% | 0.85 mV | CCCCCCC(CCCCCC)OC(=O)CCCCCCCCCNC(=O)C(CCCCCCCCCC(=O)OC(CCCCCC)CCCCCC)N(CCCN1CCN(CO)CC1)C(=O)CCCN1CCN(CCO)CC1 (stereo not shown) [Compound E11] | – | – | B (B: ≥1 and <2)
